Numbers after ± are expanded uncertainties.
What was measured:
[1] = refractive index (Na D-line) (dimensionless); mn = molality of the nth substance listed, in mol/kg; settings: 298.15 K, 101 kPa, Liquid, Standard Abbe refractometry
[2] = mn = molality of the nth substance listed, in mol/kg; settings: 298.15 K, 101 kPa, Liquid, Pycnometric method

refractive index ([1]; m1 = 1.821)	mass density ([2]; m1 = 1.821) [kg/m3]	refractive index ([1]; m1 = 4.734)	mass density ([2]; m1 = 4.734) [kg/m3]	Compound
1.3439 ± 0.0004	1074.1 ± 1.1	–	–	N[C@@H](CS)C(=O)O [(R)-2-amino-3-mercaptopropanoic acid] + O
–	–	1.4155 ± 0.0004	1242.1 ± 1.1	NCCCC[C@H](N)C(=O)O [L-lysine] + O

From the NIST ThermoML archive (doi:10.1021/acs.jced.5b00393)
